This note sets out measurements from patent US20160194336A1, “P38 MAPK INHIBITORS FOR THE TREATMENT OF INFLAMMATORY DISEASES” (ALLINKY BIOPHARMA, priority 2012, published 2016).

For one data set, the target named is T1, p38alpha (Homo sapiens, UniProt Q16539).
T1 construct: purchased Invitrogen PV3305
In words: p38 cascade kinase reaction (inactive p38alpha, MKK6, ATF2, ADP-Glo). The data set is classed as biochemical. Particulars: read-out: inhibition p38a/ATF-2 (p38 cascade); for inhibition at 10 µM: compound 10 μM; for inhibition at 100 µM: compound 100 μM. The procedure: Purified recombinant activated p38alpha (10 nM)(ProQinase) was preincubated 10 minutes at 30° C. with the compound of interest at concentrations between 1 and 100 µM in duplicate in a final volume of 30 ul of kinase buffer (Hepes 60 mM pH 7.5, MgCl2 3 mM, MnCl2 3 mM, Sodium Orthovanadate 3 μM, DTT 1.2 mM). After preincubation, peptide substrate (SignalChem #P03-58) and ATP were added to a final concentration of 10 μM and 100 μM respectively, and then incubated 40 minutes at 30° C. for the kinase reaction. Phosphorylation was analyzed with ADP-GloM (Promega #V9101) and emitted luminescence was measured with BMG Fluostar microplate reader.
(§1) After preincubation, MKK6 (ProQinase), ATF2 (ProQinase) and ATP were added to a final concentration of 10 nM, 5 μM and 10 μM respectively, then incubated 40 minutes at 30° C. and analyzed with ADP-Glo™.

In data set [1] the target is ATF2 (ProQinase) (Homo sapiens (Human)) (UniProt P15336).
The target of the next data set is T2, p38alpha wt (Homo sapiens, UniProt Q16539).
T2 construct: made in house; host or cells: E. coli XL10-Gold
Briefly: site-mutated p38 phosphorylation cascade assay, wild type. The format is biochemical. Particulars: compound 10 uM. As to the method: as §1
(§2) Replacement of specific residues arginine 186 and 189 of p38α (pGEX4T-1-p38α) for alanine was performed with the QuikChange Lightining Site-Directed Mutagenesis Kit (Agilent Technologies). The following oligonucleotides were used for the arginine 186 to alanine substitution: forward primer: 5′-SEQ ID NO 7-3′; reverse primer: 5′-SEQ ID NO 8-3′. Oligonucleotides used for the arginine 189 to alanine substitution were: forward primer: 5′-SEQ ID NO 9-3′; reverse primer: 5′-SEQ ID NO 10-3′. Mutations were validated by sequencing (Genomic Unit, Parque Cientifico de Madrid). E. coli XL10-Gold ultracompentent cells (Agilent Technologies) were transformed with the vector plasmids containing p38αWT and mutants. For the expression of recombinant p38α transformed cells were cultured overnight at 37° C. in 50 ml of fresh LB medium containing ampicillin (100 μg/ml). After that, culture was diluted in fresh LB to A595=0.4 and grown for approximately 1 h at 37° C. until exponential growth and then induced with Isopropyl-β-D-thiogalactopyranoside (IPTG) 1 mM for 5 h. The cells were collected by centrifugation and cell pellet were resuspended in 50 ml of cold lysis buffer: PBS pH 7.4, EDTA 10 mM, PMSF 1 mM, Benzamidine 0.2 mM, DTT 5 mM, Triton X-100 1% and Lysozyme 1 mg/ml. The soluble and insoluble fractions were separated by centrifugation (16,000 g for 20 min). The soluble fraction was incubated for 2 hours with 1 ml of pre-equilibrated Glutathione Sepharose 4B (GE Healthcare) and the resin was extensively washed in a column with 200 ml of binding buffer: PBS, PMSF 1 mM and benzamidine 0.2 mM. Proteins were eluted with 1 ml of Tris-HCl 50 mM pH 8.0 and reduced glutathione 20 mM. 20% glycerol was added to purified proteins and stored at −80° C. Protein concentration and purity was assessed by SDS-PAGE. Kinase activity was measured by ADP-glo kit using MKK6 as activator and ATF2 as substrate. Activity recorded for p38αR186A and p38αR189A were 15.5% and 4.8%, respectively (n=4) related to wild type protein.

The target of another data set is T3, p38αR186A (Homo sapiens, UniProt Q16539, R186A).
T3 construct: made in house; host or cells: E. coli XL10-Gold
Briefly: site-mutated p38 phosphorylation cascade assay, R186A mutant. The settings on record: compound 10 uM. The data set is classed as biochemical. The procedure:
as §1, §2

For another data set, the target named is T4, p38αR189A (Homo sapiens, UniProt Q16539, R189A).
T4 construct: made in house; host or cells: E. coli XL10-Gold
In words: site-mutated p38 phosphorylation cascade assay, R189A mutant. The data set is classed as biochemical. The settings on record: compound 10 uM. The procedure:
as §1, §2

Data set [2] deals with Fibroblast-like synoviocytes (FLS) from patients with rheumatoid arthritis. In words: inflammatory mediators (IL6, IL8, MCP-1) by ELISA in FLS stimulated with TNF-alpha. The data set is classed as cell-based, human. The settings on record: synoviocytes, TNFa + compound 100 uM. As to the method: Fibroblast-like synoviocytes (FLS) from patients with rheumatoid arthritis (RA) were obtained at the time of synovectomy or joint replacement. All RA patients fulfilled the American College of Rheumatology […] criteria for the diagnosis of RA (Arnett FC y cols. 1988 Arthritis Rheum 31(3):315-24).
Synovial tissue was minced and incubated with 10 μg/ml collagenase in serum-free Dulbecco modified Eagle medium (DMEM; Gibco Invitrogen, Barcelona, Spain) for 3 h at 37° C. After digestion, FLS were filtered through a nylon cell strainer (BD Falcon, Franklin Lakes, USA), washed extensively, and cultured in DMEM supplemented with 10% v/v fetal calf serum, 1% penicillin-streptomycin, and 1% L-glutamine (all reagents from PAA, Laboratories GmbH) in a humidified 5% C02 atmosphere. Adherent cells at 80-90% confluence were trypsinised and diluted at a split ratio of 1:3. FLS from 4 patients and between passages 3 to 8 were used for all experiments.
Enzyme-Linked Immunosorbent Assay (ELISA): RA FLS (1×10^4 cells/well) were cultured in DMEM 1% FCS in 96 well plates and treated with p-p38 inhibitors for 1 h. After, they were stimulated with TNF-α (10 ng/ml, Sigma Aldrich) and both treatments were present in the culture throughout the experiment. The supernatants were harvested at 18 h after treatment and assayed for IL6, IL8/CXCL8 and monocyte chemoattractant protein (MCP)-1/CCL2 by ELISA according to the manufacturer's instructions (BD Bioscience, San Jose, Calif., USA).

Data set [3] concerns TNF-α secretion, THP-1 cells. In words: Inhibition of TNF-α secretion by LPS-stimulated THP-1. The settings on record: Homo sapiens, THP-1, 3 h, monocytes with LPS, read-out: TNF abetment. The format is cell-based. The procedure: Inhibition of TNF-α Secretion by a Human Monocytic Cell Line, THP-1.
THP-1 cells, growing in log phase, were collected by centrifugation and resuspended in RPMI 1640 (Sigma Aldrich), to a final cell concentration of 2×10^6 cells/ml. Cells were plated into 24-well plates (BD Biosciences). Dilutions of compounds in dimethyl sulfoxide (DMSO) were added to the culture to a final concentration M. The final DMSO concentration was 0.5%. The cells […] suspensions were preincubated with compounds for 1 h at 37° C. in a 5% C02 humidified atmosphere before the addition of LPS (Sigma Aldrich, L2654) to a final concentration of 2 μg/ml. After that, cells were incubated for 3 h followed by centrifugation to pellet cells. Cell supernatants were stored at 4° C. until Human analysis for TNF-α content. TNF-α levels were determined by ELISA (TNF Biotrak, GE Healthcare) following the manufacturer's directions. The percentage inhibition was calculated for each compound concentration tested, and the IC50 was calculated for each compound.

The next data set deals with THP-1 cells. In words: survival of monocytes with LPS. The data set is classed as cell-based, human.

T2 sequence (Q16539 whole entry): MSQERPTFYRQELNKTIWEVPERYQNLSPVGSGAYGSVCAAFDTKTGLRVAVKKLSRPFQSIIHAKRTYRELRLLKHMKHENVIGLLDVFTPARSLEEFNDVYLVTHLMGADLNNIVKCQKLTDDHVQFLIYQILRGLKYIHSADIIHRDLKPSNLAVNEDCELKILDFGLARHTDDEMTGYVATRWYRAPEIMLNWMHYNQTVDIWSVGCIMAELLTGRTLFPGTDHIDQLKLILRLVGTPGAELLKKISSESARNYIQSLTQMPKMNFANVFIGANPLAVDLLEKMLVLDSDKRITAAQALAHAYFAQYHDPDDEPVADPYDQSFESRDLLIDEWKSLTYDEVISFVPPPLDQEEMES
T1 sequence (Q16539 whole entry): as above
T3 sequence (Q16539 whole entry R186A): as the sequence (Q16539 whole entry) above, with R186A counted along it
T4 sequence (Q16539 whole entry R189A): as the sequence (Q16539 whole entry) above, with R189A counted along it

`Oc1nc(N/N=C/c2ccc3c(c2)OCO3)nc(N2CCOCC2)n1` [Compound 7]: the inhibition at 10 µM on p38alpha was found to be 16%.

Turning to p38αR186A (enzyme), the kinase activity (ADP-glo kit) (% related to wild type protein) in data set [1] worked out at 15.5.

For `CCOCCCNc1nc2nnnn2c2sc3c(c12)CCN(Cc1ccccc1)C3` [Compound 6], at p38alpha, the inhibition at 10 µM worked out at 107%.

In the case of `COc1ccccc1NC(=O)C[C@H](NCCCO)C(=O)O` [Compound 3], the inhibition at 100 µM at p38alpha came out at 17%.

Take p38αR189A (enzyme): in data set [1], the kinase activity (ADP-glo kit) (% related to wild type protein) was found to be 4.8.

On to `O=S(=O)(c1cnccc1N1CCN(CCO)CC1)N1CCOCC1` [Compound 11], for which the inhibition at 10 µM at p38alpha amounted to 1%.

Take `CC(C)n1nnnc1C(c1ccc(O)cc1)N1CCN(c2nc3ccccc3s2)CC1` (centres unmarked) [Compound 5]: on p38alpha, the inhibition at 10 µM was found to be 28%.

Take `CCOC(=O)N1CCN(C2=Nc3nnnn3C3CC4CN(Cc5ccccc5)CCC4C23)CC1` (centres unmarked) [Compound 32]: the inhibition at 10 µM is 23% on p38alpha wt, 17% against p38αR186A, 9% on p38αR189A and 21% in data set [3]. Also, the “% of inflammatory mediators production in the presence of compounds, IL6” value in data set [2] came out at 52.4%. Moreover, the “% of inflammatory mediators production in the presence of compounds, IL8” value in data set [2] stood at 34.8%. In addition, the “% of inflammatory mediators production in the presence of compounds, MCP-1” value in [2] came to 22.7%. The molecule further showed a Cell survival with THP-1 cells (10 uM) of 99%.

In the case of `CCOC(=O)c1ccc(Nc2nc3nonc3nc2N2CCC(Sc3ccc(C)cc3)CC2)cc1` [Compound 15], the inhibition at 10 µM came to 61% against p38alpha wt, 28% on p38αR186A, 20% on p38αR189A and 32% in data set [3]. For the same molecule, the inhibition at 1 µM in [3] amounted to 17%. Also, the Cell survival in the data set on THP-1 cells (1 uM) came out at 92%; in the data set with THP-1 cells (10 uM) it was 97%.

For `Nc1ccc(OCC(O)C[n+]2ccc(CCS(=O)(=O)[O-])cc2)cc1` (centres unmarked) [Compound 4], the inhibition at 10 µM on p38alpha amounted to 8%.

For the molecule `CCOC(=O)c1ccc(Nc2nc3nonc3nc2N2CCC(Sc3ccc(Cl)cc3)CC2)cc1` [Compound 28], the inhibition at 10 µM against p38alpha wt worked out at 86%; against p38αR186A, 41%; against p38αR189A it was 27%; in [3] it was 36%. Besides, in data set [3], the inhibition at 0.1 µM stood at 17%. Besides, the inhibition at 1 µM in data set [3] was 24%. For the same molecule, the Cell survival in the data set with THP-1 cells (0.1 uM) is recorded as 88%; in the data set with THP-1 cells (1 uM) it was 87%; in the data set with THP-1 cells (10 uM) it was 88%.

On to `CCOC(=O)c1ccc(Nc2nc3nonc3nc2N2CCC(Oc3ccncc3)CC2)cc1` [Compound 33], for which the inhibition at 10 µM against p38alpha wt was 47%; against p38αR186A it was 23%; against p38αR189A, 19%; in data set [3], 62%. The inhibition at 0.1 µM in data set [3] came out at 21%. Moreover, the inhibition at 1 µM in data set [3] came to 46%. The Cell survival in the data set with THP-1 cells (0.1 uM) was found to be 100%; in the data set with THP-1 cells (1 uM) it was 99%; in the data set on THP-1 cells (10 uM), 97%.

Regarding `OCCOc1nc(OCCO)nc(OCCO)n1` [Compound 8], the inhibition at 100 µM on p38alpha turned out to be 20%. In data set [2], the “% of inflammatory mediators production in the presence of compounds, IL6” value was found to be 66.5%; the “% of inflammatory mediators production in the presence of compounds, IL8” value is 83.4%; the “% of inflammatory mediators production in the presence of compounds, MCP-1” value turned out to be 75.4%.

For `CCOC(=O)c1ccc(NNc2nc3nonc3nc2N2CCC(Cc3ccccc3)CC2)cc1` [Compound 24], the inhibition at 10 µM turned out to be 66% at p38alpha wt, 43% at p38αR186A, 39% on p38αR189A and 67% in [3]. Moreover, the inhibition at 0.1 µM in [3] is -23%. In addition, in data set [3], the inhibition at 1 µM came to 12%. Moreover, the figures for the Cell survival with THP-1 cells (0.1 uM), in the data set on THP-1 cells (1 uM) and in the data set with THP-1 cells (10 uM) were 104%, 98% and 105%, respectively.

For the molecule `CCOC(=O)c1ccc(Nc2nc3nonc3nc2Nc2ccc(C(=O)c3ccccc3)cc2)cc1` [Compound 26], the inhibition at 10 µM on p38alpha wt came to 73%; on p38αR186A it was 40%; against p38αR189A, 28%; in [3], 8%. In addition, the inhibition at 0.1 µM in data set [3] turned out to be 27%. Further, the inhibition at 1 µM in data set [3] came out at 30%. In addition, the figures for the Cell survival in the data set on THP-1 cells (0.1 uM), in the data set with THP-1 cells (1 uM) and in the data set with THP-1 cells (10 uM) were 86%, 87% and 83%, respectively.

`COC(=O)c1ccc(Nc2nc3nonc3nc2N2CCC(Oc3ccc(Cl)cc3)CC2)cc1` [Compound 31]: the inhibition at 10 µM came out at 84% against p38alpha wt, 35% at p38αR186A, 27% against p38αR189A and 60% in [3]. Besides, the inhibition at 0.1 µM in data set [3] amounted to 20%. In addition, the inhibition at 1 µM in data set [3] turned out to be 43%. In addition, the Cell survival came to 101% in the data set on THP-1 cells (0.1 uM), 100% with THP-1 cells (1 uM) and 92% in the data set with THP-1 cells (10 uM).

Turning to “MKK6 (ProQinase) (from UniProt P52564) (enzyme)”, the kinase activity of the cascade MKK6/p38α/ATF2 (ADP-glo kit) (% related to wild type protein) with p38αR186A (Homo sapiens) turned out to be 15.5; in the data set with p38αR189A (Homo sapiens), 4.8.
